# Earlier results as cited in patent publication US8877698B2, “Method and composition for disinfecting hard surfaces” (priority 2001, dated 2014).
# System: poliovirus
compound,measurement,value
CCO [ethanol],minimum concentration required to inactivate poliovirus,70%
same,virucidal action against poliovirus,little virucidal action
